Assay results: patent US4560692A, “4-Piperidino-2-phenylquinolines” (Hoffmann-La Roche Inc., priority 1984, dated 1985)
Read-outs that look alike come from different tables or passages of the source.

Legend:
[1] = test system: convulsive seizures (Ptz. administered intraveneously); assay: Intravenous antipentylenetetrazole (Ptz.) test, oral compound, protection against convulsions; format: in vivo, Male CF-1 mice; settings: Mus musculus
Description: (§1) Utilizing the procedures given below, the compounds of formula I synthesized in the previous examples were assayed for antimetrezol activity and ^3 H-diazepam binding activity. The 24 hour acute toxicity (LD-50, expressed as mg/kg) of each of these compounds was also determined in the standard fashion.
Male CF-1 mice, 45-54 days old, housed in the same facility for one week and food-deprived for about 24 hours are used in this test. […] One hour later, Ptz. is administered intraveneously at 70 mg/kg (convulsant dose 100) and animals are observed 30 seconds for protection against convulsions. If the compound is active orally 8 animals are used per dose level. […] Calculations: The ED50 values and 95% fiducial limits are calculated using a computer program based on the method of D. J. Finney ("Probit Analysis", Cambridge University Press, Cambridge, England, 1971).

[2] = target: ^3 H-Diazepam binding, rat brain cortical fragments; assay: ^3 H-Diazepam binding assay; settings: inhibition of ^3 H-Diazepam binding by 50%
Description: Rat brain cortical fragments are prepared and the binding procedures performed as described by Mohler and Okada (Life Sciences, 20, 2101, 1977) except that Tris buffer is substituted for Krebs buffer. Drugs are assayed in triplicate. Radioactivity is measured by liquid scintillation counting.

[3] = 24 hour acute toxicity (LD-50); settings: in vivo, ">" = not tested above indicated value
Description: as §1

[4] = compounds of formula I, oral, 1 h before Ptz. 70 mg/kg i.v., mice, ">" = not tested above indicated value, read-out: Ptz. ED50
[5] = compounds of formula I, read-out: ^3 H-Dz. IC50
[6] = po, 1 h, read-out: ED50 (95% Fiducial Limits)

| SMILES | ED50 [1, 4] [mg/kg] | IC50 [2, 5] [nM] | LD50 at 24 h [3] [mg/kg] | ED50 [1, 6] [mg/kg] | IC50 ([2]; standard drugs, read-out: IC50) [nM] |
| --- | --- | --- | --- | --- | --- |
| CNC(=O)C1CCN(c2cc(-c3ccc(F)cc3)nc3ccc(Cl)cc23)CC1 [1-[6-Chloro-2-(4-fluorophenyl)-4-quinolinyl]-N-methyl-4-piperidinecarboxamide] | 37 | 10.5 | > 1000 | – | – |
| NC(=O)C1CCN(c2cc(-c3ccc(Cl)cc3)nc3ccccc23)CC1 [1-[2-(4-chlorophenyl)-4-quinolinyl]-4-piperidinecarboxamide] | 24 | 29 | > 1000 | – | – |
| CN(C)C(=O)C1CCN(c2cc(-c3ccc(Cl)cc3)nc3ccccc23)CC1 [1-[2-(4-Chlorophenyl)-4-quinolinyl]-N,N-dimethyl-4-piperidinecarboxamide] | 24 | 80 | > 1000 | – | – |
| Cc1ccc2nc(-c3ccccc3)cc(N3CCC(C(N)=O)CC3)c2c1 [1-[6-Methyl-2-phenyl-4-quinolinyl]-4-piperidinecarboxamide] | 90 | 28 | > 1000 | – | – |
| NC(=O)C1CCN(c2cc(-c3ccc(F)cc3)nc3ccccc23)CC1 [1-[2-(4-Fluorophenyl)-4-quinolinyl]-4-piperidinecarboxamide] | > 100 | 1.1 | > 1000 | – | – |
| NC(=O)C1CCN(c2cc(-c3ccc(F)cc3)nc3ccc(Cl)cc23)CC1 [1-[6-Chloro-2-(4-fluorophenyl)-4-quinolinyl]-4-piperidinecarboxamide] | 29 | 28 | > 1000 | – | – |
| CCNC(=O)C1CCN(c2cc(-c3ccccc3)nc3ccc(F)cc23)CC1 [N-Ethyl-1-[6-fluoro-2-phenyl-4-quinolinyl]-4-piperidinecarboxamide] | 58 | 2.8 | > 1000 | – | – |
| CCCNC(=O)C1CCN(c2cc(-c3ccccc3)nc3ccc(F)cc23)CC1 [1-[6-Fluoro-2-phenyl-4-quinolinyl]-N-propyl-4-piperidinecarboxamide] | > 100 | 13 | > 1000 | – | – |
| NC(=O)C1CCN(c2cc(-c3ccccc3)nc3ccc(F)cc23)CC1 [1-[6-Fluoro-2-phenyl-4-quinolinyl]-4-piperidinecarboxamide] | 120 | 3.6 | > 1000 | – | – |
| Cc1ccc2nc(-c3ccc(F)cc3)cc(N3CCC(C(N)=O)CC3)c2c1 [1-[2-(4-fluorophenyl)-6-methyl-4-quinolinyl]-4-piperidinecarboxamide] | > 100 | 34 | > 1000 | – | – |
| CCN(CC)C(=O)C1CCN(c2cc(-c3ccc(Cl)cc3)nc3ccccc23)CC1 [1-[2-(4-Chlorophenyl)-4-quinolinyl]-N,N-diethyl-4-piperidinecarboxamide] | – | 500 | – | – | – |
| CCC1(c2ccccc2)C(=O)NC(=O)NC1=O [Sodium Phenobarbital, reference compound] | – | – | – | 19 | – |
| NC(=O)C1CCN(c2cc(-c3ccc(Cl)cc3)nc3ccc(F)cc23)CC1 [1-[2-(4-Chlorophenyl)-6-fluoro-4-quinolinyl]-4-piperidinecarboxamide] | 15 | 36 | > 1000 | – | – |
| CN1C(=O)CN=C(c2ccccc2)c2cc(Cl)ccc21 [Diazepam, reference compound] | – | – | – | 1 | – |
| CNC1=Nc2ccc(Cl)cc2C(c2ccccc2)=[N+]([O-])C1 [Chlordiazepoxide, reference compound] | – | – | – | 3.9 | – |
| CCNC(=O)C1CCN(c2cc(-c3ccc(F)cc3)nc3ccc(F)cc23)CC1 [1-Ethyl-1-[6-fluoro-2-(4-fluorophenyl)-4-quinolinyl]-4-piperidinecarboxamide] | 22 | 3 | > 1000 | – | – |
| Cc1ccc(-c2cc(N3CCC(C(N)=O)CC3)c3cc(C)ccc3n2)cc1 [1-[6-Methyl-2-(4-methylphenyl)-4-quinolinyl]-4-piperidinecarboxamide] | – | 290 | – | – | – |
| CCNC(=O)C1CCN(c2cc(-c3ccc(Cl)cc3)nc3ccccc23)CC1 [1-[2-(4-chlorophenyl)-4-quinolinyl]-N-ethyl-4-piperidinecarboxamide] | 26 | 9 | > 1000 | – | – |
| CNC(=O)C1CCN(c2cc(-c3ccc(F)cc3)nc3ccc(F)cc23)CC1 [1-6-Fluoro-2-(4-fluorophenyl)-4-quinolinyl)]-N-methyl-4-piperidinecarboxamide] | 13 | 1.8 | > 1000 | – | – |
| Cc1ccc(-c2cc(N3CCC(C(N)=O)CC3)c3cc(F)ccc3n2)cc1 [1-[6-Fluoro-2-(4-methylphenyl)-4-quinolinyl]-4-piperidinecarboxamide] | 88 | 5.4 | > 1000 | – | – |
| NC(=O)C1CCN(c2cc(-c3ccccc3)nc3ccc(Cl)cc23)CC1 [1-[6-Chloro-2-phenyl-4-quinolinyl]-4-piperidinecarboxamide] | 50 | 96 | > 1000 | – | – |
| NC(=O)C1CCN(c2cc(-c3ccc(F)cc3)nc3ccc(F)cc23)CC1 [1-[6-Fluoro-2-(4-fluorophenyl)-4-quinolinyl]-4-piperidinecarboxamide] | 5 | 1 | > 1000 | – | – |
| CNC(=O)C1CCN(c2cc(-c3ccc(Cl)cc3)nc3ccccc23)CC1 [1-[2-(4-Chlorophenyl)-4-quinolinyl]-N-methyl-4-piperidinecarboxamide] | 9 | 19.5 | > 1000 | – | – |
| CNC(=O)C1CCN(c2cc(-c3ccc(Cl)cc3)nc3ccc(F)cc23)CC1 [1-[6-Fluoro-2-(4-chlorophenyl)-4-quinolinyl]-N-methyl-4-piperidinecarboxamide] | > 300 | 70 | > 1000 | – | – |
| Cc1ccc2nc(-c3ccc(Cl)cc3)cc(N3CCC(C(N)=O)CC3)c2c1 [1-[2-(4-Chlorophenyl)-6-methyl-4-quinolinyl]-4-piperidinecarboxamide] | – | 460 | – | – | – |
| CCN(CC)CCN1C(=O)CN=C(c2ccccc2F)c2cc(Cl)ccc21 [Flurazepam, reference compound] | – | – | – | – | 15.6 |
| Cc1ccc(-c2cc(N3CCC(C(N)=O)CC3)c3cc(Cl)ccc3n2)cc1 [1-[6-Chloro-2-(4-methylphenyl)-4-quinolinyl]-4-piperidinecarboxamide] | > 100 | 60 | > 1000 | – | – |
| NC(=O)C1CCN(c2cc(-c3ccc(Cl)cc3)nc3ccc(Cl)cc23)CC1 [1-[6-chloro-2-(4-chlorophenyl)-4-quinolinyl]-4-piperidinecarboxamide] | – | 205 | – | – | – |
| NC(=O)C1CCN(c2cc(-c3ccc(Br)cc3)nc3ccccc23)CC1 [1-[2-(4-Bromophenyl)-4-quinolinyl]-4-piperidinecarboxamide] | 41 | 35 | > 1000 | – | – |
| Cc1ccc(-c2cc(N3CCC(C(N)=O)CC3)c3ccccc3n2)cc1 [1-[2-(4-methylphenyl)-4-quinolinyl]-4-piperidinecarboxamide] | 37 | 1.7 | > 1000 | – | – |
